Measured values published in ChEMBL document CHEMBL1201862, “PubChem BioAssay data set” (2004).
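Cultured in 96-well plates, cells were exposed to test compound for 48 hours across five concentrations. Here, GI50 denotes the concentration required for 50% inhibition of growth.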 Calls of active or inactive are those of the source. Rule as the data show it: active = GI50 up to about 1.1 µM and inactive = higher.

Key:
Assay in all cases: growth of human tumour cells (NCI), 48 h
TK-10 = system: TK-10
SK-MEL-2 = system: SK-MEL-2
NCI/ADR-RES = system: NCI/ADR-RES
A549 = system: A549
HCT-116 = system: HCT-116
LOX IMVI = system: LOX IMVI
HCT-15 = system: HCT-15
HCC 2998 = system: HCC 2998
OVCAR-5 = system: OVCAR-5
MDA-MB-231 = system: MDA-MB-231
K562 = system: K562
NCI-H23 = system: NCI-H23
SK-MEL-5 = system: SK-MEL-5
BT-549 = system: BT-549
HT-29 = system: HT-29
SF-268 = system: SF-268
EKVX = system: EKVX
SF-539 = system: SF-539
RXF 393 = system: RXF 393
UACC-62 = system: UACC-62
COLO 205 = system: COLO 205
SF-295 = system: SF-295
ACHN = system: ACHN
MDA-N = system: MDA-N
SNB-19 = system: SNB-19
OVCAR-4 = system: OVCAR-4
SN12C = system: SN12C
NCI-H522 = system: NCI-H522
IGROV-1 = system: IGROV-1
UACC-257 = system: UACC-257
CCRF-CEM = system: CCRF-CEM
HOP-92 = system: HOP-92
PC-3 = system: PC-3
KM12 = system: KM12
OVCAR-8 = system: OVCAR-8
RPMI-8226 = system: RPMI-8226
SW-620 = system: SW-620
SK-MEL-28 = system: SK-MEL-28
HOP-62 = system: HOP-62
UO-31 = system: UO-31
SK-OV-3 = system: SK-OV-3
MCF7 = system: MCF7
DU-145 = system: DU-145
MDA-MB-435 = system: MDA-MB-435
MOLT-4 = system: MOLT-4
SR = system: SR
U-251 = system: U-251
OVCAR-3 = system: OVCAR-3
SNB-75 = system: SNB-75
M14 = system: M14
786-0 = system: 786-0
NCI-H460 = system: NCI-H460
CAKI-1 = system: CAKI-1
HL-60 = system: HL-60
T47D = system: T47D
NCI-H226 = system: NCI-H226
Malme-3M = system: Malme-3M
A498 = system: A498

## CCc1nnc(CC)n1N1C(=O)CCC1=O
TK-10
  GI50: > 100 µM (inactive)
SK-MEL-2
  GI50: > 100 µM (inactive)
NCI/ADR-RES
  GI50: > 100 µM (inactive)
A549
  GI50: > 100 µM (inactive)
HCT-116
  GI50: > 100 µM (inactive)
LOX IMVI
  GI50: > 100 µM (inactive)
HCT-15
  GI50: > 100 µM
HCC 2998
  GI50: > 100 µM (inactive)
OVCAR-5
  GI50: > 100 µM (inactive)
MDA-MB-231
  GI50: > 100 µM (inactive)
K562
  GI50: > 100 µM (inactive)
NCI-H23
  GI50: > 100 µM (inactive)
SK-MEL-5
  GI50: > 100 µM (inactive)
BT-549
  GI50: > 100 µM (inactive)
HT-29
  GI50: > 100 µM (inactive)
SF-268
  GI50: > 100 µM (inactive)
EKVX
  GI50: > 100 µM (inactive)
SF-539
  GI50: > 100 µM (inactive)
RXF 393
  GI50: > 100 µM (inactive)
UACC-62
  GI50: > 100 µM (inactive)
COLO 205
  GI50: > 100 µM (inactive)
SF-295
  GI50: > 100 µM (inactive)
ACHN
  GI50: > 100 µM (inactive)
MDA-N
  GI50: > 100 µM (inactive)
SNB-19
  GI50: > 100 µM (inactive)
OVCAR-4
  GI50: > 100 µM (inactive)
SN12C
  GI50: > 100 µM (inactive)
NCI-H522
  GI50: > 100 µM (inactive)
IGROV-1
  GI50: > 100 µM (inactive)
UACC-257
  GI50: > 100 µM (inactive)
CCRF-CEM
  GI50: > 100 µM (inactive)
HOP-92
  GI50: > 100 µM (inactive)
PC-3
  GI50: > 100 µM (inactive)
KM12
  GI50: > 100 µM (inactive)
OVCAR-8
  GI50: > 100 µM (inactive)
RPMI-8226
  GI50: > 100 µM (inactive)
SW-620
  GI50: > 100 µM (inactive)
SK-MEL-28
  GI50: > 100 µM (inactive)
HOP-62
  GI50: > 100 µM (inactive)
UO-31
  GI50: > 100 µM (inactive)
SK-OV-3
  GI50: > 100 µM (inactive)
MCF7
  GI50: > 100 µM (inactive)
DU-145
  GI50: > 100 µM (inactive)
MDA-MB-435
  GI50: > 100 µM (inactive)
MOLT-4
  GI50: > 100 µM (inactive)
SR
  GI50: > 100 µM (inactive)
U-251
  GI50: > 100 µM (inactive)
OVCAR-3
  GI50: > 100 µM (inactive)
SNB-75
  GI50: > 100 µM (inactive)
M14
  GI50: > 100 µM (inactive)
786-0
  GI50: > 100 µM (inactive)

## COC(=O)[C@]1(c2cc3ccccc3[nH]2)CC2CN(CC(=O)N(C)OC)C1CC2(OC)OC (some centres not stated)
TK-10
  GI50: > 100 µM (inactive)
SK-MEL-2
  GI50: 39 µM (inactive)
NCI-H460
  GI50: 55.3 µM (inactive)
NCI/ADR-RES
  GI50: 41.2 µM (inactive)
A549
  GI50: 47.1 µM (inactive)
HCT-116
  GI50: 26.9 µM (inactive)
LOX IMVI
  GI50: 37.7 µM (inactive)
HCT-15
  GI50: 28.2 µM
HCC 2998
  GI50: > 100 µM (inactive)
CAKI-1
  GI50: 20.7 µM (inactive)
OVCAR-5
  GI50: 52.2 µM (inactive)
MDA-MB-231
  GI50: 31.9 µM (inactive)
K562
  GI50: 24.9 µM (inactive)
NCI-H23
  GI50: 36 µM (inactive)
SK-MEL-5
  GI50: 40.6 µM (inactive)
BT-549
  GI50: 23.3 µM (inactive)
HT-29
  GI50: 35.2 µM (inactive)
SF-268
  GI50: 67.6 µM (inactive)
EKVX
  GI50: 56.6 µM (inactive)
SF-539
  GI50: 44.4 µM (inactive)
RXF 393
  GI50: 33.5 µM (inactive)
UACC-62
  GI50: 67.8 µM (inactive)
COLO 205
  GI50: 83.6 µM (inactive)
SF-295
  GI50: > 100 µM (inactive)
ACHN
  GI50: 35.1 µM (inactive)
MDA-N
  GI50: 33.4 µM (inactive)
HL-60
  GI50: 19.4 µM (inactive)
SNB-19
  GI50: > 100 µM (inactive)
OVCAR-4
  GI50: 57.1 µM (inactive)
SN12C
  GI50: 41.2 µM (inactive)
NCI-H522
  GI50: 15.9 µM (inactive)
IGROV-1
  GI50: 48.3 µM (inactive)
UACC-257
  GI50: 71.3 µM (inactive)
CCRF-CEM
  GI50: 7.23 µM (inactive)
HOP-92
  GI50: 87.5 µM (inactive)
PC-3
  GI50: 24.2 µM (inactive)
KM12
  GI50: 31.6 µM (inactive)
T47D
  GI50: 22 µM (inactive)
OVCAR-8
  GI50: 39.3 µM (inactive)
RPMI-8226
  GI50: 14.7 µM (inactive)
SW-620
  GI50: 36.4 µM (inactive)
SK-MEL-28
  GI50: > 100 µM (inactive)
NCI-H226
  GI50: 34.4 µM (inactive)
Malme-3M
  GI50: 24.3 µM (inactive)
A498
  GI50: 39.1 µM (inactive)
HOP-62
  GI50: 69.3 µM (inactive)
UO-31
  GI50: 40.2 µM (inactive)
SK-OV-3
  GI50: > 100 µM (inactive)
MCF7
  GI50: 32.8 µM (inactive)
DU-145
  GI50: 43.5 µM (inactive)
MDA-MB-435
  GI50: 27.5 µM (inactive)
U-251
  GI50: 16.1 µM (inactive)
OVCAR-3
  GI50: 50.6 µM (inactive)
SNB-75
  GI50: 63.8 µM (inactive)
M14
  GI50: 35.9 µM (inactive)
786-0
  GI50: 22.2 µM (inactive)
